Laboratory results as given in US20230158025A1 (UNIVERSITY OF UTAH RESEARCH FOUNDATION, priority 2020, published 2023).
Like-named read-outs stand apart in the source and are kept apart here.

What was measured:
[1] = target: recombinant human GALK1 (Homo sapiens, UniProt P51570); assay: hGALK1 biochemical activity assay (Kinase-Glo Plus, ATP depletion)
Protocol: In vitro hGALK1 activity assays were performed as previously described. Liu et al., Bioorg. Med. Chem. Lett. 25(3): 721-727 (2015), which is incorporated by reference herein for the specific teachings thereof. The biochemical assay was performed by coupling the activity of recombinant human or mouse GALK1 to the Kinase-Glo Plus luminescent ATP detection kit, using ATP depletion as a measure of GALK1 turnover. Specifically, three μL/well of ATP substrate solution (35 μM ATP) in assay buffer (20 mM HEPES pH 8.0, 5 mM MgCl2, 60 mM NaCl, 1 mM DTT, 0.01% BSA final concentration) was dispensed into 1536-well assay plates (Greiner, white solid-bottom medium-binding plates). Aliquots of compound (23 nL solubilized in DMSO) were transferred to the assay plates using a Kalypsys 1536-well pintool such that 11 concentrations with 1/3 dilutions ranging from 57.4 μM-0.97 nM are tested. One μL/well of GALK-galactose solution (5 nM GALK1, 100 μM galactose) in assay buffer was then added, yielding a final reaction volume of 4 μL/well. Following a 1-hour room temperature incubation, 4 μL of Kinase-Glo Plus detection reagent was added to provide an ATP-dependent luminescent readout (final assay volume: 8 μL/well).

[2] = PAMPA permeability; settings: for Papp: Perm. (1 × 10^−6 cm/sec)
[3] = aqueous kinetic solubility
[4] = target: recombinant mouse GALK1 (Mus musculus, UniProt Q9R0N0); assay: mGALK1 biochemical activity assay (Kinase-Glo Plus, ATP depletion)
Protocol: In vitro hGALK1 activity assays were performed as previously described. Liu et al., Bioorg. […] The biochemical assay was performed by coupling the activity of recombinant human or mouse GALK1 to the Kinase-Glo Plus luminescent ATP detection kit, using ATP depletion as a measure of GALK1 turnover. […] One μL/well of GALK-galactose solution (5 nM GALK1, 100 μM galactose) in assay buffer was then added, yielding a final reaction volume of 4 μL/well. Following a 1-hour room temperature incubation, 4 μL of Kinase-Glo Plus detection reagent was added to provide an ATP-dependent luminescent readout (final assay volume: 8 μL/well).

[5] = rat microsomal stability (RLM)
[6] = recombinant human GALK1, Kinase-Glo Plus ATP depletion, read-out: hGALK
[7] = recombinant mouse GALK1, Kinase-Glo Plus ATP depletion, read-out: mGALK
[8] = Tables 2-15, 35 μM ATP, 100 μM galactose, 1 h, bracketed figure after some values (e.g. −1.2) is undefined and not reported, read-out: hGALK IC50
[9] = Tables 2-15, 35 μM ATP, 100 μM galactose, 1 h, bracketed figure after some values is undefined and not reported, read-out: mGALK IC50
[10] = recombinant mouse GALK1, Kinase-Glo Plus ATP depletion, bracketed figure in the cell, e.g. (−1.2), is not defined in the text shown, read-out: mGALK
[11] = microsomal stability half-life, minutes

Chain of recombinant human GALK1 (P51570 whole entry): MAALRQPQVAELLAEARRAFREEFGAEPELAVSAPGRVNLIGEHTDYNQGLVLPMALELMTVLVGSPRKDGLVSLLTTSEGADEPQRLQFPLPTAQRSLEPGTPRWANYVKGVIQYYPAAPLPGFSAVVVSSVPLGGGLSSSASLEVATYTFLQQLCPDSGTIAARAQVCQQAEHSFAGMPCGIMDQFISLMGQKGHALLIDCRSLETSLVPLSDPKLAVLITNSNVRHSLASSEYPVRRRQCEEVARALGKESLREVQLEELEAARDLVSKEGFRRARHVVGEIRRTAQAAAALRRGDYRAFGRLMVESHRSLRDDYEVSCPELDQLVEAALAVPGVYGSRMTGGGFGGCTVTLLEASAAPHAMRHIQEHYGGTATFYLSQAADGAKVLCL
Chain of recombinant mouse GALK1 (Q9R0N0 whole entry): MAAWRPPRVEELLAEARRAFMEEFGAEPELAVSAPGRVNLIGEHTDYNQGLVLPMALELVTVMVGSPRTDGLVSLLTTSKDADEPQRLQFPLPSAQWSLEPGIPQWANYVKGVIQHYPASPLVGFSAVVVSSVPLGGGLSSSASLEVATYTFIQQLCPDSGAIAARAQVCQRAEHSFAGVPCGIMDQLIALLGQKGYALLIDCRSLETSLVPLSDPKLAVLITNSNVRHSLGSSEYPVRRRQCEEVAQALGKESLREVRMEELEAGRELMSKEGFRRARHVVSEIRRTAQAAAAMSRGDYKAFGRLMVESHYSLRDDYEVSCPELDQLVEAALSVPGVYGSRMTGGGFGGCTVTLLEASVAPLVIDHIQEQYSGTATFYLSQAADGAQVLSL

| SMILES | IC50 [1, 6] [µM] | Perm. (1 × 10^−6 cm/sec) ([2]; PAMPA) | Sol. ([3]; aqueous kinetic solubility) [µg/mL] | IC50 [4, 7] [µM] | Metab. Stabil. (m) ([5]; microsomal stability half-life) | Perm. (1 × 10^−6 cm/sec) [2] | Sol. [3] [µg/mL] | Metab. Stabil. (m) ([5]; microsomal half-life) | IC50 [1, 8] [µM] | IC50 [4, 9] [µM] | Papp ([2]; PAMPA) [×10⁻⁶ cm/s] | IC50 [4, 10] [µM] | Metab. Stabil. (m) [5, 11] [m] |
| --- | --- | --- | --- | --- | --- | --- | --- | --- | --- | --- | --- | --- | --- |
| CCn1cc(CNC(=O)C2=C(C)NC(Nc3nc4ccc(F)c(N)c4o3)=NC2c2ccc(Cl)cc2Cl)cn1 (stereo not shown) [Compound 130, 2-((7-amino-6-fluorobenzo[d]oxazol-2-yl)amino)-4-(2,4-dichlorophenyl)-N-((1-ethyl-1H-pyrazol-4-yl)methyl)-6-methyl-1,4-dihydropyrimidine-5-carboxamide] | 0.27 | 380.3 1 × 10^−6 cm/sec | <1 | 1.93 | 6.787 |  |  |  |  |  |  |  |  |
| CC1=C(C(=O)NCc2cnn(C)c2)C(c2ccccc2Cl)N=C(Nc2nc3ccc(F)cc3o2)N1 (stereo not shown) [Compound 44, 4-(2-chlorophenyl)-2-((6-fluorobenzo[d]oxazol-2-yl)amino)-6-methyl-N-((1-methyl-1H-pyrazol-4-yl)methyl)-1,4-dihydropyrimidine-5-carboxamide] | 1.72 |  |  | 12.2 |  | 942.87 1 × 10^−6 cm/sec | 13.7 | 26 |  |  |  |  |  |
| CC1=C(C(=O)Nc2cc(C(=O)O)ccc2F)C(c2ccccc2Cl)N=C(Nc2nc3ccc(F)cc3o2)N1 (stereo not shown) [Compound 30, 3-(4-(2-chlorophenyl)-2-((6-fluorobenzo[d]oxazol-2-yl)amino)-6-methyl-1,4-dihydropyrimidine-5-carboxamido)-4-fluorobenzoic acid] | 2.17 |  |  | 6.85 |  | 2.2 1 × 10^−6 cm/sec | 35.7 | >30 |  |  |  |  |  |
| CC1=C(C(=O)NCc2ccc(C(=O)O)cc2)C(c2ccccc2Cl)N=C(Nc2nc3ccccc3o2)N1 (stereo not shown) [Compound 225, 4-((2-(benzo[d]oxazol-2-ylamino)-4-(2-chlorophenyl)-6-methyl-1,4-dihydropyrimidine-5-carboxamido)methyl)benzoic acid] |  | <1 1 × 10^−6 cm/sec | 47.0 | 10.9 | >30 |  |  |  | 3.43 | 10.9 |  |  |  |
| CC1=C(C(=O)Nc2ccc(CO)cc2)C(c2ccccc2Cl)N=C(Nc2nc3ccccc3o2)N1 (stereo not shown) [Compound 160, 2-(benzo[d]oxazol-2-ylamino)-4-(2-chlorophenyl)-N-(4-(hydroxymethyl)phenyl)-6-methyl-1,4-dihydropyrimidine-5-carboxamide] |  | 863.9 1 × 10^−6 cm/sec | <1 |  | >30 |  |  |  | 17.2 |  |  |  |  |
| CCOC(=O)c1cccc(NC(=O)C2=C(C)NC(Nc3nc4ccccc4o3)=NC2c2ccccc2Cl)c1 (stereo not shown) [Compound 139, ethyl 3-(2-(benzo[d]oxazol-2-ylamino)-4-(2-chlorophenyl)-6-methyl-1,4-dihydropyrimidine-5-carboxamido)benzoate] | 3.85 |  | <1 |  | >30 |  |  |  |  |  | 8.8 |  |  |
| CC1=C(C(=O)Nc2nnc(-c3cccnc3)s2)C(c2ccccc2Cl)N=C(Nc2nc3cc(N)ccc3o2)N1 (stereo not shown) [Compound 101, 2-((5-aminobenzo[d]oxazol-2-yl)amino)-4-(2-chlorophenyl)-6-methyl-N-(5-(pyridin-3-yl)-1,3,4-thiadiazol-2-yl)-1,4-dihydropyrimidine-5-carboxamide] | 10.9 |  |  |  |  | 4.4 1 × 10^−6 cm/sec | 1.8 | >30 |  |  |  |  |  |
| CC1=C(C(=O)Nc2cc(C(=O)O)ccn2)C(c2ccc(C(=O)O)cc2Cl)N=C(Nc2nc3ccc(F)cc3o2)N1 (stereo not shown) [Compound 72, 2-(4-(4-carboxy-2-chlorophenyl)-2-((6-fluorobenzo[d]oxazol-2-yl)amino)-6-methyl-1,4-dihydropyrimidine-5-carboxamido)isonicotinic acid] | 2.17 |  |  |  |  | <1 1 × 10^−6 cm/sec | >83 | >30 | 2.17 |  |  |  |  |
| CC1=C(C(=O)Nc2cc(C(=O)O)ccn2)C(c2ccc(-c3ccccc3)cc2Cl)N=C(Nc2nc3ccc(F)cc3o2)N1 (stereo not shown) [Compound 65, 2-(4-(3-chloro-[1,1′-biphenyl]-4-yl)-2-((6-fluorobenzo[d]oxazol-2-yl)amino)-6-methyl-1,4-dihydropyrimidine-5-carboxamido)isonicotinic acid] | 3.43 |  |  |  |  | <4.9 1 × 10^−6 cm/sec | <1 | >30 |  |  |  |  |  |
| CC1=C(C(=O)Nc2ccc(-c3nnn[nH]3)cc2)C(c2ccccc2Cl)N=C(Nc2nc3ccccc3o2)N1 (stereo not shown) [Compound 192, N-(4-(1H-tetrazol-5-yl)phenyl)-2-(benzo[d]oxazol-2-ylamino)-4-(2-chlorophenyl)-6-methyl-1,4-dihydropyrimidine-5-carboxamide] | 4.85 |  | 33.4 |  | 30 |  |  |  | 4.85 |  | < 1.7 |  |  |
| COC(=O)c1cncc(NC(=O)C2=C(C)NC(Nc3nc4ccccc4o3)=NC2c2ccccc2Cl)c1 (stereo not shown) [Compound 188, methyl 5-(2-(benzo[d]oxazol-2-ylamino)-4-(2-chlorophenyl)-6-methyl-1,4-dihydropyrimidine-5-carboxamido)nicotinate] | 21.7 | 246.9 1 × 10^−6 cm/sec | <1 |  | >30 |  |  |  | 21 |  |  |  |  |
| CC1=C(C(=O)Nc2cc(C(=O)O)ccn2)C(c2ccc(C)cc2Cl)N=C(Nc2ncc(-c3ccccc3)o2)N1 (stereo not shown) [Compound 103, 2-(4-(2-chloro-4-methylphenyl)-6-methyl-2-((5-phenyloxazol-2-yl)amino)-1,4-dihydropyrimidine-5-carboxamido)isonicotinic acid] | 24.3 |  |  |  |  | 4.14 1 × 10^−6 cm/sec | 42.2 | >30 | 24.3 |  |  |  |  |
| COCC1=C(C(=O)Nc2nncs2)C(c2ccccc2Cl)N=C(Nc2nc3ccccc3o2)N1 (stereo not shown) [Compound 247] |  | 319.8 1 × 10^−6 cm/sec | <1 |  |  |  |  |  |  |  |  | 19.3 | >30 |
| COC(=O)c1ccc(NC(=O)C2=C(C)NC(Nc3nc4ccccc4o3)=NC2c2ccccc2Cl)cc1 (stereo not shown) [Compound 138] |  | 25.4 1 × 10^−6 cm/sec | <1 | 9.68 | 17.7182 |  |  |  |  | 9.68 |  |  |  |
| COP(=O)(OC)C1=C(C)NC(Nc2nc3ccccc3o2)=NC1c1ccccc1Cl (stereo not shown) [Compound 242, dimethyl (2-(benzo[d]oxazol-2-ylamino)-4-(2-chlorophenyl)-6-methyl-1,4-dihydropyrimidin-5-yl)phosphonate] | 17.2 | 1813.86 1 × 10^−6 cm/sec | 12.21 |  | 5.35 |  |  |  |  |  |  |  |  |
| CCn1cc(CNC(=O)C2=C(C)NC(Nc3nc4ccc(F)c(N)c4o3)=N[C@H]2c2ccc(C)cc2Cl)cn1 [Compound 135, (R)-2-((7-amino-6-fluorobenzo[d]oxazol-2-yl)amino)-4-(2-chloro-4-methylphenyl)-N-((1-ethyl-1H-pyrazol-4-yl)methyl)-6-methyl-1,4-dihydropyrimidine-5-carboxamide] | 0.07 | 407.39 1 × 10^−6 cm/sec | 2.05 | 0.97 |  |  |  |  |  |  |  |  |  |
| COC(=O)c1ccnc(NC(=O)C2=C(C)NC(Nc3nc4cccc(N)c4o3)=NC2c2ccc(C)cc2Cl)c1 (stereo not shown) [Compound 91] |  |  |  | 7.08 |  | 177.1 1 × 10^−6 cm/sec | <1 | 25.2784 |  |  |  |  |  |
| CN(C)C(=O)C1CC(=O)C2=C(C1)NC(Nc1nc3ccccc3o1)=NC2c1ccccc1Cl (stereo not shown) [Compound 277, 2-(benzo[d]oxazol-2-ylamino)-4-(2-chlorophenyl)-N,N-dimethyl-5-oxo-1,4,5,6,7,8-hexahydroquinazoline-7-carboxamide] |  | 219.68 1 × 10^−6 cm/sec | 10.84 |  |  |  |  |  |  |  |  | 4.32 | 20.79 |
